d = 2'-deoxy (DNA); r = 2'-OH (RNA)
Tests used:
[1] = tested on: IGFBP-5 transcript; test: IGFBP-5 transcript by RT-PCR in primary human bone fibroblasts; format: cell-based; conditions: 50 nM
Method: Primary human bone fibroblasts were transfected with 50 nM of the 3 species of bispecific siRNA (BS-1, BS-2 and BS-3) or scrambled control. A vehicle only and an untreated control were was also evaluated. Total RNA was extracted and analyzed by RT-PCR for IGFBP-5 transcript.

[2] = tested on: IGFBP-5 transcript; test: IGFBP-5 transcript by RT-PCR in PC3 cells; format: cell-based, human; conditions: 10, 50 and 100 nM
Method: PC3 cells were transfected with various doses (10, 50 and 100 nM) of the 3 species of bispecies siRNA (BS-1, BS-2 and BS-3) or scrambled control. A vehicle only control was also evaluated. Total. RNA was extracted and analyzed by RT-PCR for IGFBP-5 transcript.

[3] = tested on: CLU mRNA and protein; test: CLU gene silencing by siRNA in PC3 cells (RNA blot, immunoblot); format: cell-based, human; conditions: sequence-dependent but dose-independent
Method: (§1) Alternatively, in PC3 cells Lipofectin™ (Invitrogen Life technologies Inc., San Diego, Calif.) was used to enhance transfection with the Cl-III and CL-V oligonucleotides. PC3 cells were treated with 10, 50, or 100 nM of the RNA duplexes after pre-incubation with 4 μg/ml of […] reagent in serum free OptiMEM® I for 20 minutes. Four hours after starting the incubation, the medium containing the RNA duplexes and Lipofectin was replaced with standard tissue culture medium. Cells were treated once on day 1 and then harvested 48 h after treatment on day 3. In all cases controls used included: (a) the usage of the Sc-I and Sc-II RNA duplexes and (b) mock transfections in the absence of a nucleic acid (Con-I). CLU gene silencing was assayed by RNA blot analysis, immunoblotting analysis or confocal immunofluorescence.
Effects of CLU gene silencing in PC-3 prostate cancer cells were determined. Having established the significant effects of CLU knock down in OS cells, we then applied CLU siRNA in PC3 human prostate cancer cells. PC3 cells are p53 null (Rohlff, et al., Prostate 37: 51-59 (1998)) and express relatively low endogenous amount of the s-CLU protein form similar to the Sa OS cells. In PC3 cells, apart from employing the Cl-I and Cl-II oligonucleotides, we also tested two additional CLU-specific siRNA oligonucleotides (Cl-III, Cl-V). […]

[4] = tested on: 55 kDa n-CLU protein form; test: Expression of n-CLU protein form after siRNA; format: cell-based, human; conditions: KH OS and U-2 OS cells
Text: (§2) OS cells sensitization to genotoxic and oxidative stress due to CLU gene silencing is related to activation of the cellular apoptotic machinery. […] We assume that the explanation of this effect relies on our observation that the n-CLU protein is extremely stable.

[5] = tested on: CLU protein; test: CLU gene silencing by siRNA in OS cells (immunoblotting); format: cell-based, human; conditions: for CLU protein accumulation following exposure to DXR: KH OS and U-2 OS cells, DXR for 24 h in presence of siRNA; for knock-down of secreted CLU (s-CLU) protein form: OS cells; for cellular CLU protein levels / CLU gene silencing: three OS cell lines, 100 nM siRNA duplex, 2-3 days
Text: The human clusterin cDNA was manually scanned in order to identify sequences of the AA(N19)UU (N, any nucleotide) type that fulfill the required criteria for siRNA (Harbourth et al., J Cell Sci 114: 4557-4560 (2001)). Two such sequences with symmetric 2-nt 3′ overhangs, were found 433 (Cl-I) and 644 (Cl-II) nts downstream of the CLU gene transcription initiation codon. Two additional oligonucleotides used targeted a region 1620 nts downstream of the CLU gene transcription initiation codon (Cl-III) and the human CLU transcription initiation site (Cl-V) (see Table). […] Selected RNA oligos were synthesized by Dharmacon Research, Inc. (Lafayette, Colo.), diluted at a 20 μM final concentration in RNasefree ddH2O and stored at −20° C. The Scramble-I™ (Sc-I) (D-1200-20) and Scramble-II™ (Sc-II) (D-1205-20) oligonucleotides used were purchased from Dharmacon Research, Inc.
siRNA transfection of the Cl-I, Cl-II and scrambled RNA duplexes in exponentiary growing OS cells was performed as described (Harbourth et al., Tuschl et al., Genes Dev. 13: 3191-3197 (1999)). Briefly, cells were seeded the day before siRNA transfection in 24-well plates containing 500 μl complete medium and were ˜40-50% confluent during transfection. For the transfection mixture 100 nM of siRNA duplex per well were used. The RNA duplex was diluted in Opti-MEM® I (Gibco Life Technologies, Inc., San Diego, Calif.) serum free medium and transfection efficiency was enhanced by using the Oligofectamine™ reagent (Invitrogen Life technologies Inc., San Diego, Calif.). When cells were treated with both Cl-i and Cl-II oligonucleotides, 100 nM of each siRNA duplex were used. Cell treatment with the siRNA oligonucleotides lasted for 2-3 days.
as §1
Efficient silencing of the CLU gene expression in OS cells is achieved using siRNA.

[6] = tested on: 49 kDa c-CLU protein form; test: Expression of c-CLU protein form after siRNA; format: cell-based, human; conditions: KH OS and U-2 OS cells
Text: as §2

[7] = tested on: clusterin transcript; test: Clusterin transcript by Real Time PCR in A549 cells; format: cell-based, human; conditions: 10, 50 or 100 nM, two days
Method: (§3) PC3 cells were transfected with siRNA at levels of 10, 50 or 100 nM or with 100 nM scrambled control. Two days after transfection, total RNA was extracted and the level of clusterin transcript was quantified by Real Time PCR.
The experiment of Example 9 was repeated using A549 cells in place of PC3 cells.

[8] = tested on: clusterin transcript; test: Clusterin transcript by Northern blot in PC3 cells; format: cell-based, human; conditions: all doses (10, 50 or 100 nM), two days
Method: PC3 cells were treated (1 pulse) with CLU-3 (Seq ID NOs. 5 and 6) or CLU-5 (Seq ID Nos 9 and 10) or with a scrambled control at levels of 10, 50 or 100 nM, or with oligoFECTAMINE™ only. After two days total RNA was extracted and analyzed for clusterin and GADPH by Northern blotting. Densitometric measurement was performed. FIG. 10 presents results of these measurements after normalization to GADPH.

[9] = tested on: PC3 cells; test: PC3 cell viability with siRNA and Taxol, MTT assay; format: cell-based, human; conditions: 25 nM siRNA, then Taxol three days
Method: PC3 cells were treated once with 25 nM human clusterin siRNAs (CLU-3 and CLU-5), a scrambled control, or oligoFECTAMINE™ only. After two days of treatment, the medium was replaced with medium containing various concentrations of Taxol (Paclitaxel). After three days of incubation, cell viability was determined by MTT assay. FIG. 11 summarizes the results.

[10] = tested on: clusterin transcript; test: Clusterin transcript by Real Time PCR in PC3 cells; format: cell-based, human; conditions: 10, 50 or 100 nM, two days
Method: as §3

Q: For “BS-3: IGFBP-2 and -5 bispecific siRNA, double-stranded RNA from Seq. ID NOs. 43 and 44 (chain 1 CCAGGGGCUGCGCUGCTT; chain 2 GCAGCGCAGCCCCUGGTT; sugars from the 5' end r16 d2, backbone not given here)”, which “amount of IGFBP-5 transcript” value [1] is on record?
A: reduction in the amount of IGFBP-5 transcript

Q: What about the “amount of IGFBP-5 transcript” value [2] of the same substance?
A: reduction in the amount of IGFBP-5 transcript

Q: For “BS-2: IGFBP-2 and -5 bispecific siRNA, double-stranded RNA from Seq. ID NOs. 41 and 42 (chain 1 CGUGCGGCGUCUACACCTT; chain 2 GGUGUAGACGCCGCACGTT; sugars from the 5' end r17 d2, backbone not given here)”, which “amount of IGFBP-5 transcript” value [1] is on record?
A: reduction in the amount of IGFBP-5 transcript

Q: What about the “amount of IGFBP-5 transcript” value [2] of the same substance?
A: reduction in the amount of IGFBP-5 transcript

Q: For “Cl-III: clusterin siRNA duplex, SEQ. ID No: 64 and 65; targets region 1620 nts downstream of initiation codon (chain 1 CUAAUUCAAUAAAACUGUCTT; chain 2 GACAGUUUUAUUGAAUUAGTT; sugars from the 5' end r19 d2, backbone not given here)”, which “silencing CLU RNA and protein expression” value [3] is on record?
A: quite effective

Q: “Cl-II: clusterin siRNA duplex, SEQ. ID No: 61 and 62; target 644 nts downstream of CLU transcription initiation codon (chain 1 GUCCCGCAUCGUCCGCAGCTT; chain 2 GCUGCGGACGAUGCGGGACTT; sugars from the 5' end r19 d2, backbone not given here)” was tested. Which “effect on putative 55 kDa n-CLU protein form” value [4] did it give?
A: did not exert any significant effect

Q: And the “CLU protein accumulation following exposure to DXR” value [5]?
A: effectively abolished

Q: And the “knock-down of secreted CLU (s-CLU) protein form” value [5]?
A: specifically knock-down

Q: What about the “cellular CLU protein levels / CLU gene silencing” value [5] of the same substance?
A: knocking down significantly

Q: What about the “effect on 49 kDa c-CLU protein form level” value [6] of the same substance?
A: minor effect

Q: “BS-1: IGFBP-2 and -5 bispecific siRNA, double-stranded RNA from Seq. ID NOs. 39 and 40 (chain 1 GGAGCCGGGCUGCGGCUGCTT; chain 2 GCAGCCGCAGCCCGGCUCCTT; sugars from the 5' end r19 d2, backbone not given here)” was tested. Which “amount of IGFBP-5 transcript” value [1] did it give?
A: reduction in the amount of IGFBP-5 transcript

Q: What about the “amount of IGFBP-5 transcript” value [2] of the same substance?
A: reduction in the amount of IGFBP-5 transcript

Q: Which results are given for “CLU3: clusterin siRNA, double-stranded RNA from Seq. ID NOs. 5 and 6 (chain 1 CUAAUUCAAUAAAACUGUCTT; chain 2 GACAGUUUUAUUGAAUUAGTT; sugars from the 5' end r19 d2, backbone not given here)”?
A: amount of clusterin transcript [7]: reduction in the amount of clusterin transcript; amount of clusterin transcript normalized to GADPH [8]: Reduction in the amount of clusterin transcript; viable cells with siRNA plus Taxol [9]: worked in synergy; amount of clusterin transcript [10]: reduction in the amount of clusterin transcript

Q: Which results are given for “Cl-I: clusterin siRNA duplex, SEQ. ID No: 58 and 59; target 433 nts downstream of CLU transcription initiation codon (chain 1 CCAGAGCUCGCCCUUCUACTT; chain 2 GUAGAAGGGCGAGCUCUGGTT; sugars from the 5' end r19 d2, backbone not given here)”?
A: effect on putative 55 kDa n-CLU protein form [4]: did not exert any significant effect; CLU protein accumulation following exposure to DXR [5]: effectively abolished; effectiveness in silencing the CLU gene, Cl-I compared with Cl-II ([5]; OS cell lines): slightly more effective than Cl-II; knock-down of secreted CLU (s-CLU) protein form [5]: specifically knock-down; cellular CLU protein levels / CLU gene silencing [5]: knocking down significantly; effect on 49 kDa c-CLU protein form level [6]: minor effect

Q: What does the source list for “CLU1: clusterin siRNA, double-stranded RNA from Seq. ID NOs. 1 and 2 (chain 1 CCAGAGCUCGCCCUUCUACTT; chain 2 GUAGAAGGGCGAGCUCUGGTT; sugars from the 5' end r19 d2, backbone not given here)”?
A: amount of clusterin transcript [7]: reduction in the amount of clusterin transcript; amount of clusterin transcript [10]: reduction in the amount of clusterin transcript

Q: With “Cl-V: clusterin siRNA duplex targeting the human CLU transcription initiation site; Table 7 Cl-IV, SEQ. ID No: 67 and 68 (chain 1 AUGAUGAAGACUCUGCUGC; chain 2 GCAGCAGAGUCUUCAUCAU; RNA, backbone not given here) [clusterin siRNA duplex targeting the human CLU transcription initiation site; ID No: 67 and 68]” as the substance, how does the “silencing CLU RNA and protein expression” value [3] read?
A: quite effective

Reference: patent US8759308B2, “RNAi probes targeting cancer-related proteins” (The University of British Columbia, priority 2002, dated 2014)
